From ChEMBL document CHEMBL1201862, “PubChem BioAssay data set” (2004)
Active and inactive are the calls of the source. Unless noted, no cut-off for these calls is given here.

Tests used:
[1] = target: Sphingosine 1-phosphate receptor 1 (Homo sapiens, UniProt P21453); test: Fluorescence-based counterscreen assay for S1P4 agonists: Cell-based dose response high throughput screening assay to identify agonists of the Sphingosine 1-Phosphate Receptor 1 (S1P1). [Related pubchem assays (depositor defined):AID1509, AID1523, AID1801, AID463107, AID463118, AID463119, AID463122, AID463123, AID463129, AID463225, AID504400, AID504460]; format: functional
[2] = target: T1, Sphingosine 1-phosphate receptor 4 (Homo sapiens, UniProt O95977); test: Fluorescence dose response cell-based high throughput screening assay for agonists of the Sphingosine 1-Phosphate Receptor 4 (S1P4). [Related pubchem assays: 1509 (Primary screen.), 1523 (Confirmation screen in triplicates.)]; format: functional
T1 sequence (O95977 whole entry): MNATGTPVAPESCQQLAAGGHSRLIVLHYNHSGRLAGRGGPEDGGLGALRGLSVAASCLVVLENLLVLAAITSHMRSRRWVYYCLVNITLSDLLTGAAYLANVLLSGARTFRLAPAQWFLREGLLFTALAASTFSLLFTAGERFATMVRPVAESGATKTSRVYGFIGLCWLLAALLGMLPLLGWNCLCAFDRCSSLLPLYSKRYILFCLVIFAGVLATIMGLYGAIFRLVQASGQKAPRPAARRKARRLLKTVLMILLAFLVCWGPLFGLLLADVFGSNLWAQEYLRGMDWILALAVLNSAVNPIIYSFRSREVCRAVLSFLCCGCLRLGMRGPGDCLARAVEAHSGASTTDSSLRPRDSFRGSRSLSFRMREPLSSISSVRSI

[3] = target: T2, Delta-type opioid receptor (Homo sapiens, UniProt P41143); test: SAR Analysis of Agonists of the DOR Receptor using an Image-Based Assay - Set 3. [Related pubchem assays (depositor defined):AID1777, AID1786]; format: functional
[4] = target: T3, Kappa-type opioid receptor (Homo sapiens, UniProt P41145); test: KOR agonist analogs, arrestin-GFP redistribution, SAR follow-up, imaging, image-based, set 3 (AID 488833); format: functional
Mu-type opioid receptor [5] = target: T4, Mu-type opioid receptor (Homo sapiens, UniProt P35372); test: SAR Analysis of Agonists of the MOR Receptor using an Image-Based Assay - Set 3. [Related pubchem assays (depositor defined):AID1777, AID1785, AID1786, AID1966, AID2133, AID2136, AID2284, AID2285, AID2352]; format: functional
[6] = target: T3, Kappa-type opioid receptor; test: SAR analysis of small molecule agonists of the kappa opioid receptor via a luminescent beta-arrestin assay - Set 3. [Related pubchem assays (depositor defined):AID1777, AID1785, AID1786, AID1966, AID2133, AID2136, AID2284, AID2500]; format: functional
fMet-Leu-Phe receptor = target: T5, fMet-Leu-Phe receptor (Homo sapiens, UniProt P21462); test: FPR ligands, dose response (AID 519); format: functional
T5 sequence (P21462 whole entry): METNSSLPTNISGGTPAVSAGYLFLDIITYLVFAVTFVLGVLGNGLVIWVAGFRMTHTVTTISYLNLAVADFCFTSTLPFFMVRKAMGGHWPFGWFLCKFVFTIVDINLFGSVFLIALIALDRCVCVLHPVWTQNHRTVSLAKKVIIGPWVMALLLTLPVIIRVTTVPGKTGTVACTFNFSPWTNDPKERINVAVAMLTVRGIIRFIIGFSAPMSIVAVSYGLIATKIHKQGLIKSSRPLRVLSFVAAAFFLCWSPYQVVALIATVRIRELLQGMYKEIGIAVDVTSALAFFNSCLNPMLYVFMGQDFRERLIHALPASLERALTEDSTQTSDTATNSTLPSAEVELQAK

[7] = target: Lysine-specific demethylase 4A (Homo sapiens, UniProt O75164); test: JMJD2A histone demethylase inhibitors, dose response, selectivity assay for GASC-1 inhibitor project, biochemical, DELFIA europium, cherry-picked samples (AID 488840)
[8] = target: T6, Lysine-specific demethylase 4C (Homo sapiens, UniProt Q9H3R0); test: GASC-1 (JMJD2C) histone demethylase inhibitors, dose response, biochemical, DELFIA europium, cherry-picked samples (AID 488835); format: functional
T6 sequence (Q9H3R0 whole entry): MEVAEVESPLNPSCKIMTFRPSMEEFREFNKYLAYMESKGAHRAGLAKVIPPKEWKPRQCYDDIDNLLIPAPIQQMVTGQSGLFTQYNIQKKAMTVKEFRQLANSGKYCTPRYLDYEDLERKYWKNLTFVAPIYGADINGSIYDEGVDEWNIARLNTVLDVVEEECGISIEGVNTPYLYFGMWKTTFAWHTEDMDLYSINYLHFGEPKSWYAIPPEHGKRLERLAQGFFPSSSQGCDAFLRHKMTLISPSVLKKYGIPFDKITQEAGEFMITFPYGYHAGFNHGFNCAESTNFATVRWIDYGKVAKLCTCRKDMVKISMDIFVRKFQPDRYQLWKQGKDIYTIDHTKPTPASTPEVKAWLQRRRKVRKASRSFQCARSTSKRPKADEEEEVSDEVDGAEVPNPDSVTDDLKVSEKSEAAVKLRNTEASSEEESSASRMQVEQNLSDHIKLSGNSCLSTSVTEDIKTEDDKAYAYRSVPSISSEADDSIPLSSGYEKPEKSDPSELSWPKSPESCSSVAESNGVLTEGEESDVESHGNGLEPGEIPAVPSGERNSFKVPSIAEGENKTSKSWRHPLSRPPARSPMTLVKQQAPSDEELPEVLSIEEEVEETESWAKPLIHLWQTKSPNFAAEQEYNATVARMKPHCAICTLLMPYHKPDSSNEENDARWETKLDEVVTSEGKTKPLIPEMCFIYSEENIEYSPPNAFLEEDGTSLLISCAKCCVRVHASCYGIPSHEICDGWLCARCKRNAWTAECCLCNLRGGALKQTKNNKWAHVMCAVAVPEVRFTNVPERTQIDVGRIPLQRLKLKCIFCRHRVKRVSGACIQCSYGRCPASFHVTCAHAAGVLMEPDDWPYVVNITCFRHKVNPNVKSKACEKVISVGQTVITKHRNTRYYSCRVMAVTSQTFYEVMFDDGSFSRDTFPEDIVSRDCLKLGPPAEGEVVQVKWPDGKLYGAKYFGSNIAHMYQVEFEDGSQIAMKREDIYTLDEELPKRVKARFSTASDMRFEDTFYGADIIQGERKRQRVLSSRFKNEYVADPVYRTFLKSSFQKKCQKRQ

Mu-type opioid receptor [9] = target: T4, Mu-type opioid receptor; test: SAR Analysis of Agonists of the MOR Receptor using an Image-Based Assay - Set 2. [Related pubchem assays (depositor defined):AID1777, AID1785, AID1786, AID1966, AID2133, AID2136, AID2284, AID2285, AID2352]; format: functional
[10] = target: T3, Kappa-type opioid receptor; test: SAR analysis of Agonists of the Kappa Opioid Receptor (KOR) using an Image-Based Assay - Set 2. [Related pubchem assays (depositor defined):AID1777, AID1786, AID1966, AID2133, AID2136, AID2284, AID2285, AID2359]; format: functional
[11] = target: T2, Delta-type opioid receptor; test: SAR Analysis of Antagonists of the DOR Receptor using an Image-Based Assay - Set 2. [Related pubchem assays (depositor defined):AID1777, AID1785, AID1786, AID1966, AID2133, AID2136, AID2284, AID2285, AID2357]; format: functional
[12] = target: T2, Delta-type opioid receptor; test: SAR Analysis of Agonists of the DOR Receptor using an Image-Based Assay - Set 2. [Related pubchem assays (depositor defined):AID1777, AID1785, AID1786, AID1966, AID2133, AID2136, AID2284, AID2285, AID2370]; format: functional
[13] = target: T3, Kappa-type opioid receptor; test: KOR antagonist analogs, beta-arrestin recruitment, SAR follow-up, cell-based, luminescence, set 2 (AID 2495); format: functional
[14] = target: T3, Kappa-type opioid receptor; test: SAR analysis of small molecule agonists of the kappa opioid receptor via a luminescent beta-arrestin assay - Set 2. [Related pubchem assays (depositor defined):AID1777, AID1785, AID1786, AID1966, AID2133, AID2136, AID2284, AID449737]; format: functional
[15] = target: T3, Kappa-type opioid receptor; test: SAR analysis of Antagonists of the Kappa Opioid Receptor (KOR) using an Image-Based Assay - Set 2. [Related pubchem assays (depositor defined):AID1777, AID1785, AID1786, AID1966, AID2133, AID2136, AID2284, AID2285, AID2348]; format: functional
Mu-type opioid receptor [16] = target: T4, Mu-type opioid receptor; test: SAR Analysis of Antagonists of the MOR Receptor using an Image-Based Assay - Set 2. [Related pubchem assays (depositor defined):AID1777, AID1785, AID1786, AID1966, AID2133, AID2136, AID2284, AID2285, AID2420]; format: functional

T2 sequence (P41143 whole entry): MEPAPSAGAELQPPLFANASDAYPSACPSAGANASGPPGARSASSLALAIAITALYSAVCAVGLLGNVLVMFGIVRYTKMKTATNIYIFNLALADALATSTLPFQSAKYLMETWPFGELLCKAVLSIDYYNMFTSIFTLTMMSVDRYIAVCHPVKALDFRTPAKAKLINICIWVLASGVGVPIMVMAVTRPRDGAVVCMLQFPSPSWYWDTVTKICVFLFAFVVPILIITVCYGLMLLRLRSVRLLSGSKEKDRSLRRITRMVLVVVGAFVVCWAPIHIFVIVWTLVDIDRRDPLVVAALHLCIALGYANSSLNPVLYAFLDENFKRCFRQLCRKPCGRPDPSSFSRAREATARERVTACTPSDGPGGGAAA
T4 sequence (P35372 whole entry): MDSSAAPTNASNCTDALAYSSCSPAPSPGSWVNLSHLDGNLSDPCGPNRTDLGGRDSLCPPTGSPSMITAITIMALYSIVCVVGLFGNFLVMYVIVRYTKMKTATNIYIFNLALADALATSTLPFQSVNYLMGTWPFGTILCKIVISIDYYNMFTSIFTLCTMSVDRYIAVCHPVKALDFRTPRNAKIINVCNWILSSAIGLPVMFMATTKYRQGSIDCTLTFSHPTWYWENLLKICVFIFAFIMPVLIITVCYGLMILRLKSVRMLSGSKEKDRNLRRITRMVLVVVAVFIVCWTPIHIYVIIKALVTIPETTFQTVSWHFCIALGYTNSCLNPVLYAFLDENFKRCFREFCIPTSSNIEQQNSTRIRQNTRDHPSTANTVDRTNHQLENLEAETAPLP
T3 sequence (P41145 whole entry): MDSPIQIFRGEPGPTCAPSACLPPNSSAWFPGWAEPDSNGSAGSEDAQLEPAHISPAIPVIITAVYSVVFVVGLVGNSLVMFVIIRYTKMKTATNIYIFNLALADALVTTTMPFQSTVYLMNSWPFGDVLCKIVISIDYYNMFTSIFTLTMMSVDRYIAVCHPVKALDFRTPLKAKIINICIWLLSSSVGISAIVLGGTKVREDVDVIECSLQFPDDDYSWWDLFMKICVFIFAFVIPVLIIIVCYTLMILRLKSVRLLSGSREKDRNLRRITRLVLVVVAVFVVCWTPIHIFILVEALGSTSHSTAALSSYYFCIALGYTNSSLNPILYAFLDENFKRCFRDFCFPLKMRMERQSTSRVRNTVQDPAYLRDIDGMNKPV
Sequence of Lysine-specific demethylase 4A (O75164 whole entry): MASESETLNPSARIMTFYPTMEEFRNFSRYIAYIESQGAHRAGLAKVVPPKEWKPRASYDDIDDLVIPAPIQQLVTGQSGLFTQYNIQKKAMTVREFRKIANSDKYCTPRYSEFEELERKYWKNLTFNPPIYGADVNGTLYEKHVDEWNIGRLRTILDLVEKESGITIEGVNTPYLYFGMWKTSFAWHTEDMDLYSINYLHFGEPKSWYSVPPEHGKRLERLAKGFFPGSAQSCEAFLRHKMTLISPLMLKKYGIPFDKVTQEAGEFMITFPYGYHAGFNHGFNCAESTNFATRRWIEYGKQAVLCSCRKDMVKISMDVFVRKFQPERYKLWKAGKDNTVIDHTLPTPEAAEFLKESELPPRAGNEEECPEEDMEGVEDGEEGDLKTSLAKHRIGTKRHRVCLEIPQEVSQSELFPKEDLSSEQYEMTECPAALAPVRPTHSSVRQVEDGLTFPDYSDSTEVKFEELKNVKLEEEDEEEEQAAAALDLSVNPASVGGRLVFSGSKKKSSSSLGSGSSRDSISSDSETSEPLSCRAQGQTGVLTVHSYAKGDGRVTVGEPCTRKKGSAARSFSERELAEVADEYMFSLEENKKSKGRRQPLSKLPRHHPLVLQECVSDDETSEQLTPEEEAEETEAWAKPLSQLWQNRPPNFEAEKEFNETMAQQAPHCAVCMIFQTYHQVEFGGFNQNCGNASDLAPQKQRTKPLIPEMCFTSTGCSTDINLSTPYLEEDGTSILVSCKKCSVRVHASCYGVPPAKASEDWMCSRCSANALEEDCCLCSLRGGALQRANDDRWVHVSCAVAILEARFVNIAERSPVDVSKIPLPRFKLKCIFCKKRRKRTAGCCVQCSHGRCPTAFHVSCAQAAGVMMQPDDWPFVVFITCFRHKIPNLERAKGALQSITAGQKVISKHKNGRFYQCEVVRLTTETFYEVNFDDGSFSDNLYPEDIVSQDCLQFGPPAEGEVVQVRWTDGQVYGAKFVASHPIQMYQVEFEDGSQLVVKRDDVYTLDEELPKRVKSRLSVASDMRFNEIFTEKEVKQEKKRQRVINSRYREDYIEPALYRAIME
Sequence of Sphingosine 1-phosphate receptor 1 (P21453 whole entry): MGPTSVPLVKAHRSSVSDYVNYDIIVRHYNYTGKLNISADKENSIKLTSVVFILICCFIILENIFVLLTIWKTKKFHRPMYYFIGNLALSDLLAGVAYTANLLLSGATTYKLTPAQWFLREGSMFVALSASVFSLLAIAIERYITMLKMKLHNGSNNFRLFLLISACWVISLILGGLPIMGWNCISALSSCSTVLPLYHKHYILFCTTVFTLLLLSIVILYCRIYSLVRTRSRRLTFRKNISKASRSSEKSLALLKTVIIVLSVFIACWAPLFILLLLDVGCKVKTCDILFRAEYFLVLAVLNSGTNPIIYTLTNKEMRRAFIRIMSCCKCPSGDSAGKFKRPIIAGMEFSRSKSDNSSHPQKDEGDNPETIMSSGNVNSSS

Cc1cccc(-n2c(=O)c(C#N)cc3c(=O)n4ccccc4nc32)c1
EC50 [1]: 8.75 µM (active)
EC50 [2]: 4.06 µM (active)

Fc1cccc(F)c1CSc1nnc(-c2ccccn2)n1Cc1cccs1
EC50 [3]: > 32 µM (inactive)
EC50 [4]: 20.9 µM (inactive)
EC50 (Mu-type opioid receptor [5]): > 32 µM (inactive)
EC50 [6]: 18 µM (inactive)

O=c1cc(N2CCc3ccccc32)[nH]c(=O)n1Cc1ccc(F)cc1
Ki (fMet-Leu-Phe receptor): > 66.7 µM (inactive)
AC50 [7]: 6.55 µM (active)
AC50 [8]: 1.09 µM (active)

CCc1ccc(S(=O)(=O)NCc2ccc(C(=O)NCCc3ccccc3)cc2)cc1
EC50 (Mu-type opioid receptor [9]): > 32 µM (inactive)
EC50 [10]: > 32 µM (inactive)
IC50 [11]: > 32 µM (inactive)
EC50 [12]: > 32 µM (inactive)
IC50 [13]: > 20 µM (inactive)
EC50 [14]: > 20 µM (inactive)
IC50 [15]: > 32 µM (inactive)
IC50 (Mu-type opioid receptor [16]): > 32 µM (inactive)
